CO/N=C1\C[C@]2(C[C@@H]3C[C@@H](C/C=C(\C)C[C@@H](C)/C=C/C=C4\CO[C@@H]5[C@H](O)C(C)=C[C@@H](C(=O)O3)[C@]45O)O2)O[C@H](/C(C)=C/C(C)C)[C@H]1C
solubility (mole fraction)
Details | 278.15 K | 283.15 K | 288.15 K | 293.15 K | 298.15 K | 303.15 K | 308.15 K | 313.15 K | 318.15 K | 323.15 K
in ethanol | 0.0532 | 0.0674 | 0.0814 | 0.097 | 0.114 | 0.133 | 0.153 | 0.173 | 0.196 | 0.223
in ethylene glycol | 0.00364 | 0.0049 | 0.00631 | 0.00796 | 0.00975 | 0.0117 | 0.0137 | 0.0157 | 0.0181 | 0.021
in isopropanol | 0.00799 | 0.0107 | 0.0139 | 0.0178 | 0.0211 | 0.0253 | 0.0296 | 0.0346 | 0.04 | 0.0455
in methanol | 0.0243 | 0.0306 | 0.0383 | 0.0454 | 0.0545 | 0.0634 | 0.0729 | 0.0822 | 0.0927 | 0.105
in water | 3.75e-06 | 5.13e-06 | 6.71e-06 | 8.61e-06 | 1.08e-05 | 1.33e-05 | 1.59e-05 | 1.85e-05 | 2.14e-05 | 2.49e-05

From BigSolDB 2.1
